The values below come from PubChem BioAssay (NCI).

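96-well plates; 48 h exposure; 5 concentrations. Endpoints by linear interpolation between flanking doses. Not reached: highest tested concentration assigned. GI50 is the concentration that inhibits growth by half. TGI denotes the concentration required for complete inhibition of growth.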

Some test systems named below: SNB-19 CNS; SK-MEL-5 melanoma; BT-549 breast; LOX IMVI melanoma; RXF 393 renal; NCI/ADR-RES ovarian; HCC-2998 colon; MOLT-4 leukemia; COLO 205 colon; DU-145 prostate.
What all share (experiment): growth of human tumour cells (NCI), 48 h

For the molecule `COc1cc(C(=O)/C=C/c2cccnc2Nc2ccc(Cl)cc2)cc(OC)c1OC`, the GI50 in the assay on SNB-19 CNS was 1.52 µM; in the assay on SK-MEL-5 melanoma it was 1.5 µM; in the assay with BT-549 breast it was 1.5 µM; in the assay with LOX IMVI melanoma, 1.27 µM; in the assay with RXF 393 renal, 1.26 µM; in the assay with NCI/ADR-RES ovarian, 1.64 µM. Besides, the GI50 in the assay with HCC-2998 colon was 1.52 µM; with MOLT-4 leukemia it was 2.55 µM; in the assay on COLO 205 colon, 1.83 µM; in the assay with DU-145 prostate it was 1.63 µM. The TGI in the assay with SNB-19 CNS came to 2.88 µM; in the assay on SK-MEL-5 melanoma, 2.84 µM; in the assay with BT-549 breast, 2.85 µM; in the assay on LOX IMVI melanoma, 2.59 µM; in the assay with RXF 393 renal, 2.61 µM; in the assay on NCI/ADR-RES ovarian, 4.4 µM. Further, the TGI stood at 2.89 µM in the assay on HCC-2998 colon, 10.5 µM in the assay on MOLT-4 leukemia, 3.47 µM in the assay on COLO 205 colon and 2.98 µM with DU-145 prostate.
For the molecule `COC(=O)NC1=Nc2ccccc2C(=O)NN1`, the TGI with SNB-19 CNS, in the assay with SK-MEL-5 melanoma, in the assay on BT-549 breast, with LOX IMVI melanoma, in the assay with RXF 393 renal and in the assay with NCI/ADR-RES ovarian was over 100 µM throughout. Besides, the TGI in the assay with HCC-2998 colon, in the assay on MOLT-4 leukemia, in the assay with COLO 205 colon and with DU-145 prostate was over 100 µM in each case.
Turning to `CCNCCS(=O)(=O)NC[C@@]1(c2ccccc2)SC(NC(=O)C(C)(C)C)=NN1C(=O)C(C)(C)C`, the TGI with SNB-19 CNS was over 100 µM; in the assay on SK-MEL-5 melanoma, 20.3 µM; in the assay on BT-549 breast, over 100 µM; in the assay on LOX IMVI melanoma, over 47.3 µM; in the assay with RXF 393 renal, over 62.2 µM; in the assay with NCI/ADR-RES ovarian it was over 45.8 µM. The TGI in the assay on HCC-2998 colon was over 51.2 µM; in the assay on MOLT-4 leukemia, over 100 µM; in the assay with COLO 205 colon, 12.1 µM; in the assay with DU-145 prostate, over 100 µM. Moreover, the GI50 was under 0.01 µM in the assay with SK-MEL-5 melanoma; 0.357 µM in the assay with BT-549 breast; under 0.0285 µM in the assay on LOX IMVI melanoma; under 0.0223 µM in the assay with RXF 393 renal; 4.11 µM in the assay on NCI/ADR-RES ovarian; under 0.01 µM in the assay on HCC-2998 colon. Moreover, the GI50 was under 0.0139 µM in the assay with MOLT-4 leukemia, under 0.01 µM in the assay on COLO 205 colon and under 0.0159 µM in the assay on DU-145 prostate.
As to `C/C(=N\O)C1CC(CC(=O)O)C1(C)C` (centres undefined), the TGI in the assay on SNB-19 CNS, in the assay with SK-MEL-5 melanoma, with BT-549 breast, with LOX IMVI melanoma, in the assay on RXF 393 renal and in the assay with NCI/ADR-RES ovarian was over 100 µM each time. Moreover, the TGI in the assay with HCC-2998 colon, in the assay with MOLT-4 leukemia, with COLO 205 colon and in the assay on DU-145 prostate was over 100 µM in each case.
As for `Cc1ccc(/C=C(/C#N)n2nnc3cccc(F)c32)cc1`, the GI50 in the assay with SNB-19 CNS is 0.466 µM; in the assay with SK-MEL-5 melanoma it was 0.423 µM; in the assay on BT-549 breast, 0.634 µM; in the assay with LOX IMVI melanoma, 0.409 µM; in the assay on RXF 393 renal, 0.201 µM; with NCI/ADR-RES ovarian, 0.159 µM. Moreover, the GI50 is 1.11 µM in the assay with HCC-2998 colon, 0.394 µM in the assay with MOLT-4 leukemia, 0.387 µM with COLO 205 colon and 0.332 µM in the assay with DU-145 prostate. Moreover, the TGI is 17.4 µM with SNB-19 CNS; 4.22 µM with SK-MEL-5 melanoma; 8.99 µM with BT-549 breast; 1.81 µM in the assay on LOX IMVI melanoma; 0.563 µM in the assay on RXF 393 renal; 0.848 µM in the assay on NCI/ADR-RES ovarian. The TGI in the assay on HCC-2998 colon is 5.15 µM; in the assay on MOLT-4 leukemia, over 100 µM; in the assay on COLO 205 colon it was 3.3 µM; in the assay on DU-145 prostate, 7.13 µM.
Take `CC(C)(Oc1cccc(N2CCC[C@@H](C(=O)N(Cc3ccc(-c4cn[nH]c4)cc3)C3CC3)C2)c1)C(=O)N1CCNCC1`: the GI50 with SNB-19 CNS was 15.1 µM; in the assay with SK-MEL-5 melanoma, 10.3 µM; in the assay with BT-549 breast, 13.3 µM; in the assay on LOX IMVI melanoma it was 11.8 µM; in the assay on RXF 393 renal, 1.85 µM; with NCI/ADR-RES ovarian, 24.1 µM. The GI50 in the assay on HCC-2998 colon was 3.06 µM; in the assay on MOLT-4 leukemia, 12.1 µM; with COLO 205 colon, 5.91 µM; in the assay on DU-145 prostate it was 14.5 µM. Further, the TGI in the assay on SNB-19 CNS was 29.7 µM; in the assay on SK-MEL-5 melanoma, 22.1 µM; with BT-549 breast, 26.6 µM; in the assay with LOX IMVI melanoma, 25 µM; in the assay on RXF 393 renal, 8.26 µM; with NCI/ADR-RES ovarian, 73.6 µM. In addition, the TGI came out at 10.7 µM with HCC-2998 colon, 55.8 µM in the assay on MOLT-4 leukemia, 20.1 µM in the assay on COLO 205 colon and 28 µM with DU-145 prostate.
`CN1C(=O)[C@@H](CC2CCCC2)N(C2CCCC2)c2nc(Nc3cc(Cl)c(O)c(Cl)c3)ncc21`: the GI50 in the assay with SNB-19 CNS is 28.3 µM; in the assay with SK-MEL-5 melanoma, 17.4 µM; with BT-549 breast it was 18.2 µM; with LOX IMVI melanoma, 19.5 µM; in the assay with RXF 393 renal, 13.5 µM; in the assay on NCI/ADR-RES ovarian, 20.7 µM. Besides, the GI50 was 29.8 µM in the assay with HCC-2998 colon, 12.2 µM in the assay with MOLT-4 leukemia, 23 µM in the assay on COLO 205 colon and 27.6 µM in the assay on DU-145 prostate. Besides, the TGI in the assay with SNB-19 CNS was over 100 µM; in the assay on SK-MEL-5 melanoma, 32.9 µM; with BT-549 breast, 53.2 µM; in the assay on LOX IMVI melanoma, 49.3 µM; in the assay with RXF 393 renal it was 52 µM; in the assay on NCI/ADR-RES ovarian it was over 100 µM. The TGI in the assay with HCC-2998 colon is over 100 µM; in the assay with MOLT-4 leukemia it was 56 µM; with COLO 205 colon it was 56.1 µM; with DU-145 prostate it was over 100 µM.
On to `Oc1c(Cl)cc(Cl)c(Cl)c1Cc1c(O)c(Cl)cc(Cl)c1Cl`, for which the GI50 in the assay on SNB-19 CNS was 0.908 µM; with SK-MEL-5 melanoma, 0.712 µM; in the assay with BT-549 breast, 1.26 µM; in the assay on LOX IMVI melanoma, 2.39 µM; in the assay with RXF 393 renal, 4.04 µM; with NCI/ADR-RES ovarian, 0.453 µM. The GI50 is 0.584 µM in the assay with HCC-2998 colon, 1.31 µM in the assay on MOLT-4 leukemia, 2.68 µM in the assay on COLO 205 colon and 4.13 µM in the assay on DU-145 prostate. In addition, the TGI in the assay on SNB-19 CNS came to 58.9 µM; in the assay on SK-MEL-5 melanoma, 3.04 µM; in the assay on BT-549 breast, 10.3 µM; in the assay on LOX IMVI melanoma, 11.2 µM; in the assay on RXF 393 renal, 22.4 µM; in the assay with NCI/ADR-RES ovarian it was 10.8 µM. Also, the TGI with HCC-2998 colon stood at 12.9 µM; with MOLT-4 leukemia it was 36.1 µM; in the assay with COLO 205 colon, 15 µM; in the assay on DU-145 prostate, 22.1 µM.
